Values of other authors as cited in patent publication US20080113973A1, “Compositions and methods involving the combination of a thromboxane A2 receptor antagonist and an inhibitor of cyclooxygenase-2” (B.M.R.A. Corporation B.V., priority 2002, published 2008).

In the case of `CS(=O)(=O)c1ccc(C2=C(c3ccccc3)C(=O)OC2)cc1` [Rofecoxib], the “Time of peak plasma concentrations” value (after oral administration) is listed as 2 to 3 h and the half life (in vivo) is listed as “about 17 hours”.
